From patent US20250333410A1, “COMPOUND FOR INHIBITING OR DEGRADING BCL6 AND USE THEREOF IN PHARMACEUTICS” (XIZANG HAISCO PHARMACEUTICAL CO., LTD., priority 2022, published 2025)

Assays:
[1] = molecular target: T1, Bcl6 (Homo sapiens (Human), UniProt P41182); assay: Bcl-6 protein degradation experiment in OCI-LY1 cells; format: cell-based; details: 24 hours
Experimental: 4. Bcl-6 Protein Degradation Experiment in OCI-LY1 Cells
(§1) OCI-LY1 cells purchased from DSMZ were placed in an IMDM complete medium (containing 10% fetal bovine serum, 100 U/mL penicillin, 100 μg/mL streptomycin and 50 µM mercaptoethanol) and cultured at 37° C. and 5% CO2. The cells in the logarithmic growth phase were collected, and the cell suspension was adjusted to an appropriate density with the culture medium and added to a 6-well cell culture plate at a volume of 1 mL/well. The compounds to be tested were prepared to 2-fold the final concentration, 1 mL of the compounds at different concentrations were added to administration wells, a medium containing 0.2% DMSO was added to control wells, and the plate was incubated at 37° C. for 24 hours. The cells were collected into a 1.5 mL centrifuge tube, 25 L of RIPA lysis buffer (containing 1× protease inhibitor cocktail) was added, and the cells were lysed on ice for 15 minutes and centrifuged at 12000 rpm/min at 4° C. for 10 minutes. The supernatant was collected and the protein content was determined using the BCA method. The protein sample to be tested was diluted to 0.8 mg/mL, Bcl6 was detected using a fully automated protein expression quantitative analyzer (ProteinSimple), and the internal reference protein was R-actin (both antibodies were from CST). The software (Compass for SW) of the fully automated protein expression quantitative analyzer was used to process the raw data and calculate the peak area and the Bcl6 expression rate relative to the control group. DC50 values were calculated using a four-parameter non-linear fitting model in Graphpad 8.3.0 software.

[2] = Pharmacokinetic test in mice; format: in vivo, ICR mice; details: i.g. 5 mg/kg; for AUC(0-t): male, ICR, mouse, po, mice plasma; for F: mice
Experimental: 3. Pharmacokinetic Test in Mice
1.1 Experimental animal: male ICR mice, 25-30 g, 6 mice/compound, purchased from Chengdu Ddossy Experimental Animals Co., Ltd.
1.2 Experimental design: on the day of the experiment, the ICR mice were randomly grouped according to their body weights. The animals were fasted but with water available for 12 to 14 h one day before the administration, and were fed 4 h after the administration.

[3] = molecular target: T1, Bcl6; assay: Bcl-6 protein degradation experiment in Farage cells; format: cell-based; details: 24 hours
Experimental: 2. Bcl-6 Protein Degradation Experiment in Farage Cells
as §1, with “Farage cells” for “OCI-LY1 cells”, “from ATCC” for “from DSMZ”, “an RPMI-1640” for “an IMDM”, “U/mL penicillin and” for “U/mL penicillin,”, “μg/mL streptomycin)” for “μg/mL streptomycin and 50 µM mercaptoethanol)”, “25 μL” for “25 L”

[4] = molecular target: hERG potassium ion channel (Homo sapiens (Human), UniProt Q12809); assay: Test for hERG potassium ion channel (manual patch-clamp, CHO cells); format: cell-based; details: CHO cells stably expressing hERG, whole cell patch-clamp; read-out: IC50 of inhibitory effects on hERG potassium channel current
hERG potassium ion channel, sequence (Q12809 whole entry): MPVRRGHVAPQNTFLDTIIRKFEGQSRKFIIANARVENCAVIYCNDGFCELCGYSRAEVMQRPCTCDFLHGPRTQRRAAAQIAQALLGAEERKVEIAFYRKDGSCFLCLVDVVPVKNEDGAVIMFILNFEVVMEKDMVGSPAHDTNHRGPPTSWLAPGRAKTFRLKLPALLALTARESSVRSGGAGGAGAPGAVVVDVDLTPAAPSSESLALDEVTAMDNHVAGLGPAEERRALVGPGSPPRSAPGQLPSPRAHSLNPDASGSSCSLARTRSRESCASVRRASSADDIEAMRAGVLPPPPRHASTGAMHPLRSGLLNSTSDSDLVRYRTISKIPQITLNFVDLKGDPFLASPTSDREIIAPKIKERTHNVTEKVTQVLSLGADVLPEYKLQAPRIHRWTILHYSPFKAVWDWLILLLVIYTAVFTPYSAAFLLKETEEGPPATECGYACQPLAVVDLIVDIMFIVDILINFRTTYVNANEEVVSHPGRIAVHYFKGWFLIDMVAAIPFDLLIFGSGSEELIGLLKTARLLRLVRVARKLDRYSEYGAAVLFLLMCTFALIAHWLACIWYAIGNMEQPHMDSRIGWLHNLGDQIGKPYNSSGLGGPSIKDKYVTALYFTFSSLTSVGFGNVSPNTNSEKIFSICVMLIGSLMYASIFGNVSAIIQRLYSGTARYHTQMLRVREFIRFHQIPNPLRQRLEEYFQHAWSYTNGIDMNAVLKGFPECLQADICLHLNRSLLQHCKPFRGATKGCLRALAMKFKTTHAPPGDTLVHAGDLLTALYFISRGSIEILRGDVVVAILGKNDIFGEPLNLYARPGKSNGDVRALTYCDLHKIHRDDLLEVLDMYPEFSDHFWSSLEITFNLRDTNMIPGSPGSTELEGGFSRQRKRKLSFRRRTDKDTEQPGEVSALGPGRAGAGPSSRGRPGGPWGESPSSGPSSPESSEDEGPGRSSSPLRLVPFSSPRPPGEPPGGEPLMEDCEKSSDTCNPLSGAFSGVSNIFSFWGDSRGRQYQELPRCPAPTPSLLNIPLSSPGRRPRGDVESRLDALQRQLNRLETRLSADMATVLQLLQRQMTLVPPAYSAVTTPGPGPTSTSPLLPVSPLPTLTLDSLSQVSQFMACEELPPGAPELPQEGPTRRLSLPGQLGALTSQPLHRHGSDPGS
Source text: 8. Test for hERG Potassium Ion Channel
Experimental platform: electrophysiological manual patch-clamp system
Cell line: Chinese hamster ovary (CHO) cell lines stably expressing hERG potassium ion channel
Experimental method: in CHO (Chinese Hamster Ovary) cells stably expressing hERG potassium channel, the whole cell patch-clamp technique was used to record hERG potassium channel current at room temperature. The glass microelectrode was made of a glass electrode blank (BF150-86-10, Sutter) by a puller. The tip resistance after filling the liquid in the electrode was about 2-5 MΩ. The glass microelectrode can be connected to the patch-clamp amplifier by inserting the glass microelectrode into an amplifier probe. The clamping voltage and data recording were controlled and recorded by the pClamp 10 software through a computer. The sampling frequency was 10 kHz, and the filtering frequency was 2 kHz. After the whole cell records were obtained, the cells were clamped at −80 mV, and the step voltage that induced the hERG potassium current (IhERG) was depolarized from −80 mV to +20 mV for 2 s, then repolarized to −50 mV, and returned to −80 mV after 1 s. This voltage stimulation was given every 10 s, and the administration process was started after the hERG potassium current was confirmed to be stable (at least 1 minute). The compound was administered for at least 1 minute at each test concentration, and at least 2 cells (n≥2) were tested at each concentration.
Data processing: data analysis processing was carried out by using pClamp 10, GraphPad Prism 5 and Excel software. The inhibition degree of hERG potassium current (peak value of hERG tail current induced at −50 mV) at different compound concentrations was calculated by the following formula: […]
where Inhibition % represents the percentage of inhibition of hERG potassium current by the compound, and I and Io represent the amplitude of hERG potassium current after and before the administration, respectively.
Compound IC50 was calculated using GraphPad Prism 5 software by fitting according to the following equation: […]
Among the equation, X represents the Log value of the tested concentration of the test sample, Y represents the inhibition percentage at the corresponding concentration, and Bottom and Top represent the minimum and maximum inhibition percentage, respectively.

Compound: CC(=O)COc1cc2cc(Nc3nc(N4CCC(N5CCN(c6ccc(C7CCC(=O)NC7=O)cc6)CC5)CC4)ncc3Cl)ccc2n(C)c1=O (stereo not drawn) [Compound 15]
- DC50 [1]: < 100 nM
- AUC(0-t) [2]: > 1000 ng·h/mL

Compound: CNC(=O)COc1cc2cc(Nc3nc(N4CCC(N5CCN(c6ccc(C7CCC(=O)NC7=O)cc6)CC5)CC4)ncc3Cl)ccc2n(C)c1=O (stereo not drawn) [Compound 16]
- DC50 [1]: < 100 nM

Compound: CC(=O)COc1cc2cc(Nc3nc(N4CCC(C5CCN(c6ccc(C7CCC(=O)NC7=O)cc6)CC5)CC4)ncc3Cl)ccc2n(C)c1=O (stereo not drawn) [Compound 18]
- DC50 [1]: < 100 nM

Compound: CNC(=O)COc1cc2cc(Nc3nc(N4CCN(CC5CCN(c6cccc7c6C(=O)N(C6CCC(=O)NC6=O)C7=O)CC5)CC4)ncc3Cl)ccc2n(C)c1=O (stereo not drawn) [Control compound 1, reference compound]
- AUC(0-t) [2]: < 100 ng·h/mL
- F [2]: <5%

Compound: CC(=O)COc1cc2cc(Nc3nc(N4CCC(CN5CCN(c6ccc(C7CCC(=O)NC7=O)cc6)CC5)CC4)ncc3Cl)ccc2n(C)c1=O (stereo not drawn) [Trifluoroacetate of compound 13]
- DC50 [3]: < 10 nM
- AUC(0-t) [2]: > 1000 ng·h/mL

Compound: CNC(=O)COc1cc2cc(Nc3nc(N4CCC(CN5CCN(c6ccc(C7CCC(=O)NC7=O)cc6)CC5)CC4)ncc3Cl)ccc2n(C)c1=O (stereo not drawn) [Trifluoroacetate of compound 14]
- DC50 [3]: < 10 nM
- AUC(0-t) [2]: > 1000 ng·h/mL

Compound: CNC(=O)COc1cc2cc(Nc3nc(N4CCN(CC5CCN(c6ccc(C7CCC(=O)NC7=O)c(F)c6)CC5)CC4)ncc3Cl)ccc2n(C)c1=O (stereo not drawn) [Trifluoroacetate of compound 24]
- DC50 [1]: < 100 nM
- DC50 ([1]; listed as trifluoroacetate of compound 24): < 5 nM
- DC50 [3]: < 10 nM
- AUC(0-t) [2]: > 1000 ng·h/mL
- F [2]: >50%

Compound: CNC(=O)COc1cc2cc(Nc3nc(N4CCC(CN5CCN6c7cc(F)c(C8CCC(=O)NC8=O)cc7CC[C@@H]6C5)CC4)ncc3Cl)ccc2n(C(C)C)c1=O (stereo partly drawn) [Trifluoroacetate of compound 56]
- DC50 [3]: < 10 nM
- AUC(0-t) [2]: > 1000 ng·h/mL

Compound: CNC(=O)COc1cc2cc(Nc3nc(N4CCC(CN5CCN6c7cc(F)c(C8CCC(=O)NC8=O)cc7CC[C@H]6C5)CC4)ncc3Cl)ccc2n(C(C)C)c1=O (stereo partly drawn) [Trifluoroacetate of compound 57]
- DC50 [1]: < 100 nM
- DC50 ([1]; listed as trifluoroacetate of compound 57): < 5 nM
- DC50 [3]: < 10 nM
- AUC(0-t) [2]: > 1000 ng·h/mL

Compound: CNC(=O)COc1cc2cc(Nc3nc(N4CCC(O[C@H]5C[C@H](N6CCN7c8cc(F)c(C9CCC(=O)NC9=O)cc8CC[C@H]7C6)C5)CC4)ncc3Cl)ccc2n(C(C)C)c1=O (stereo partly drawn) [Trifluoroacetate of compound 58]
- DC50 [1]: < 100 nM
- DC50 ([1]; listed as trifluoroacetate of compound 58): < 5 nM
- DC50 [3]: < 10 nM
- AUC(0-t) [2]: > 1000 ng·h/mL
- F [2]: >50%

Compound: [2H]C([2H])([2H])n1c(=O)c(OCC(=O)NC)cc2cc(Nc3nc(N4CCC(CN5CCN6c7cc(F)c(C8CCC(=O)NC8=O)cc7CC[C@@H]6C5)CC4)ncc3Cl)ccc21 (stereo partly drawn) [Trifluoroacetate of compound 62]
- DC50 [3]: < 10 nM
- AUC(0-t) [2]: > 1000 ng·h/mL
- F [2]: >50%

Compound: [2H]C([2H])([2H])NC(=O)COc1cc2cc(Nc3nc(N4CCC(CN5CCN6c7cc(F)c(C8CCC(=O)NC8=O)cc7CC[C@@H]6C5)CC4)ncc3Cl)ccc2n(C([2H])([2H])[2H])c1=O (stereo partly drawn) [Trifluoroacetate of compound 63]
- DC50 [3]: < 10 nM
- AUC(0-t) [2]: > 1000 ng·h/mL

Compound: [2H]C([2H])([2H])NC(=O)COc1cc2cc(Nc3nc(N4CCC(CN5CCN6c7cc(F)c(C8CCC(=O)NC8=O)cc7CC[C@@H]6C5)CC4)ncc3Cl)ccc2n(C)c1=O (stereo partly drawn) [Trifluoroacetate of compound 64]
- DC50 [3]: < 10 nM
- AUC(0-t) [2]: > 1000 ng·h/mL

Compound: [2H]C([2H])([2H])n1c(=O)c(OCC(=O)NC)cc2cc(Nc3nc(N4CCC(CN5CCN6c7cc(F)c(C8CCC(=O)NC8=O)cc7CC[C@H]6C5)CC4)ncc3Cl)ccc21 (stereo partly drawn) [Trifluoroacetate of compound 65]
- DC50 [3]: < 10 nM
- AUC(0-t) [2]: > 1000 ng·h/mL

Compound: [2H]C([2H])([2H])NC(=O)COc1cc2cc(Nc3nc(N4CCC(CN5CCN6c7cc(F)c(C8CCC(=O)NC8=O)cc7CC[C@H]6C5)CC4)ncc3Cl)ccc2n(C([2H])([2H])[2H])c1=O (stereo partly drawn) [Trifluoroacetate of compound 66]
- DC50 [3]: < 10 nM
- AUC(0-t) [2]: > 1000 ng·h/mL
- F [2]: >50%

Compound: [2H]C([2H])([2H])NC(=O)COc1cc2cc(Nc3nc(N4CCC(CN5CCN6c7cc(F)c(C8CCC(=O)NC8=O)cc7CC[C@H]6C5)CC4)ncc3Cl)ccc2n(C)c1=O (stereo partly drawn) [Trifluoroacetate of compound 67]
- DC50 [3]: < 10 nM
- AUC(0-t) [2]: > 1000 ng·h/mL
- F [2]: >50%
- IC50 [4]: > 40000 nM

Compound: CNC(=O)COc1cc2cc(Nc3nc(N4CCC(CN5CCn6c(nc7cc(F)c(C8CCC(=O)NC8=O)cc76)C5)CC4)ncc3Cl)ccc2n(C(C)C)c1=O (stereo not drawn) [Trifluoroacetate of compound 75]
- DC50 [3]: < 10 nM
- IC50 [4]: > 40000 nM

Compound: CNC(=O)COc1cc2cc(Nc3nc(N4CCC(CN5CCn6c(cc7cc(C8CCC(=O)NC8=O)c(F)cc76)C5)CC4)ncc3Cl)ccc2n(C(C)C)c1=O (stereo not drawn) [Trifluoroacetate of compound 77]
- DC50 [3]: < 10 nM
- IC50 [4]: > 40000 nM

Compound: CNC(=O)COc1cc2cc(Nc3nc(N4CCC(F)(CN5CCN6c7cc(F)c(C8CCC(=O)NC8=O)cc7CC[C@@H]6C5)CC4)ncc3Cl)ccc2n(C(C)C)c1=O (stereo partly drawn) [Trifluoroacetate of compound 98]
- DC50 [3]: < 10 nM

Compound: CNC(=O)COc1cc2cc(Nc3nc(N4CC[C@H](O[C@H]5C[C@H](N6CCN7c8cc(F)c(C9CCC(=O)NC9=O)cc8CC[C@H]7C6)C5)[C@@H](F)C4)ncc3Cl)ccc2n(C(C)C)c1=O (stereo partly drawn) [Trifluoroacetate of compound 109]
- DC50 [3]: < 10 nM
